From the NIST ThermoML archive (doi:10.1021/acs.jced.7b00035)
Several values for one entry are separate records, joined by “and”; a condition that tells them apart may be missing. Equal entries are not always repeated. Numbers after ± are expanded uncertainties.

Legend:
[1] = 101.33 kPa, Liquid, Vibrating tube method
[2] = xn = mol fraction of the nth substance listed; settings: 100 kPa, Liquid, Vibrating tube method
[3] = excess molar enthalpy (molar enthalpy of mixing); xn = mol fraction of the nth substance listed; settings: 100 kPa, Liquid, Flow calorimetry

`CCCCC(C)=O` [2-hexanone] showed a mass density ([1]; 288.15 K) of 815.72 ± 0.78 kg/m3, a mass density ([1]; 298.15 K) of 806.7 ± 0.77 kg/m3 and a mass density ([1]; 308.15 K) of 797.6 ± 0.77 kg/m3. It also gave a mass density ([1]; 318.15 K) of 788.45 ± 0.77 kg/m3.
With `CCCCC(C)=O` [2-hexanone] + O the mass density ([2]; 288.15 K, x1 = 0.00087) was 998.466 ± 0.037 kg/m3 and 998.439 ± 0.037 kg/m3, the mass density ([2]; 288.15 K, x1 = 0.00116) was 998.248 ± 0.057 kg/m3 and 998.255 ± 0.042 kg/m3 and the mass density ([2]; 288.15 K, x1 = 0.00145) was 998.054 ± 0.038 kg/m3. The mass density ([2]; 288.15 K, x1 = 0.001739) was 997.852 ± 0.039 kg/m3 and 997.853 ± 0.039 kg/m3, the mass density ([2]; 298.15 K, x1 = 0.000869) was 996.347 ± 0.15 kg/m3 and the mass density ([2]; 298.15 K, x1 = 0.00087) was 996.364 ± 0.15 kg/m3. For the same molecule, the mass density ([2]; 298.15 K, x1 = 0.001159) was 996.128 ± 0.11 kg/m3, the mass density ([2]; 298.15 K, x1 = 0.00116) was 996.137 ± 0.11 kg/m3 and the mass density ([2]; 298.15 K, x1 = 0.001448) was 995.926 ± 0.17 kg/m3. For the same molecule, the mass density ([2]; 298.15 K, x1 = 0.00145) was 995.903 ± 0.17 kg/m3, the mass density ([2]; 298.15 K, x1 = 0.001737) was 995.664 ± 0.94 kg/m3 and the mass density ([2]; 298.15 K, x1 = 0.00174) was 995.681 ± 0.94 kg/m3. For the same molecule, the mass density ([2]; 308.15 K, x1 = 0.000869) was 993.309 ± 0.039 kg/m3 and 993.32 ± 0.039 kg/m3, the mass density ([2]; 308.15 K, x1 = 0.001158) was 993.074 ± 0.08 kg/m3 and the mass density ([2]; 308.15 K, x1 = 0.001159) was 993.08 ± 3.3 kg/m3. It also gave a mass density ([2]; 308.15 K, x1 = 0.001447) of 992.84 ± 0.095 kg/m3, a mass density ([2]; 308.15 K, x1 = 0.001448) of 992.834 ± 4 kg/m3 and a mass density ([2]; 308.15 K, x1 = 0.001735) of 992.573 ± 1.6 kg/m3. For the same molecule, the mass density ([2]; 308.15 K, x1 = 0.001737) was 992.571 ± 2.4 kg/m3, the mass density ([2]; 318.15 K, x1 = 0.000868) was 989.45 ± 0.046 kg/m3 and the mass density ([2]; 318.15 K, x1 = 0.000869) was 989.446 ± 0.046 kg/m3. The mass density ([2]; 318.15 K, x1 = 0.00087) was 989.455 ± 0.046 kg/m3, the mass density ([2]; 318.15 K, x1 = 0.001158) was 989.173 ± 0.07 kg/m3 and the mass density ([2]; 318.15 K, x1 = 0.001159) was 989.168 ± 0.071 kg/m3 and 989.197 ± 0.28 kg/m3. The mass density ([2]; 318.15 K, x1 = 0.001447) was 988.934 ± 0.059 kg/m3, the mass density ([2]; 318.15 K, x1 = 0.001448) was 988.931 ± 0.059 kg/m3 and 988.956 ± 0.32 kg/m3 and the mass density ([2]; 318.15 K, x1 = 0.001736) was 988.678 ± 0.47 kg/m3. For the same molecule, the mass density ([2]; 318.15 K, x1 = 0.001737) was 988.651 ± 0.47 kg/m3 and 988.636 ± 0.73 kg/m3, the excess molar enthalpy ([3]; 288.15 K, x1 = 0.00087) was -0.00256 kcal/mol and -0.00254 kcal/mol and the excess molar enthalpy ([3]; 288.15 K, x1 = 0.00116) was -0.00343 kcal/mol and -0.00339 kcal/mol. The excess molar enthalpy ([3]; 288.15 K, x1 = 0.00145) was -0.00423 kcal/mol and -0.00421 kcal/mol, the excess molar enthalpy ([3]; 288.15 K, x1 = 0.001739) was -0.00503 kcal/mol and -0.00504 kcal/mol and the excess molar enthalpy ([3]; 298.15 K, x1 = 0.000869) was -0.00197 ± 0.00021 kcal/mol. It also gave an excess molar enthalpy ([3]; 298.15 K, x1 = 0.00087) of -0.00198 ± 0.00021 kcal/mol, an excess molar enthalpy ([3]; 298.15 K, x1 = 0.001159) of -0.00264 ± 0.000287 kcal/mol and an excess molar enthalpy ([3]; 298.15 K, x1 = 0.00116) of -0.00262 ± 0.000287 kcal/mol. For the same molecule, the excess molar enthalpy ([3]; 298.15 K, x1 = 0.001448) was -0.00321 ± 0.000621 kcal/mol, the excess molar enthalpy ([3]; 298.15 K, x1 = 0.00145) was -0.00329 ± 0.000621 kcal/mol and the excess molar enthalpy ([3]; 298.15 K, x1 = 0.001737) was -0.00394 ± 0.000287 kcal/mol. It also gave an excess molar enthalpy ([3]; 298.15 K, x1 = 0.00174) of -0.0039 ± 0.000287 kcal/mol, an excess molar enthalpy ([3]; 308.15 K, x1 = 0.000869) of -0.00138 ± 0.000196 kcal/mol and an excess molar enthalpy ([3]; 308.15 K, x1 = 0.001158) of -0.0018 ± 0.000239 kcal/mol. The excess molar enthalpy ([3]; 308.15 K, x1 = 0.001159) was -0.00181 ± 0.000645 kcal/mol, the excess molar enthalpy ([3]; 308.15 K, x1 = 0.001447) was -0.00226 ± 0.000335 kcal/mol and the excess molar enthalpy ([3]; 308.15 K, x1 = 0.001448) was -0.00224 ± 0.00022 kcal/mol. The excess molar enthalpy ([3]; 308.15 K, x1 = 0.001735) was -0.00273 ± 0.000287 kcal/mol, the excess molar enthalpy ([3]; 308.15 K, x1 = 0.001737) was -0.00273 ± 0.000382 kcal/mol and the excess molar enthalpy ([3]; 318.15 K, x1 = 0.000868) was -0.000825 ± 0.000198 kcal/mol. It also gave an excess molar enthalpy ([3]; 318.15 K, x1 = 0.000869) of -0.000817 ± 0.000198 kcal/mol, an excess molar enthalpy ([3]; 318.15 K, x1 = 0.00087) of -0.000813 ± 0.000198 kcal/mol and an excess molar enthalpy ([3]; 318.15 K, x1 = 0.001158) of -0.0011 ± 0.000263 kcal/mol. The excess molar enthalpy ([3]; 318.15 K, x1 = 0.001159) was -0.00111 kcal/mol and -0.00109 kcal/mol, the excess molar enthalpy ([3]; 318.15 K, x1 = 0.001447) was -0.00133 ± 0.000359 kcal/mol and the excess molar enthalpy ([3]; 318.15 K, x1 = 0.001448) was -0.00135 kcal/mol and -0.00132 kcal/mol. The excess molar enthalpy ([3]; 318.15 K, x1 = 0.001736) was -0.00161 ± 0.000359 kcal/mol and the excess molar enthalpy ([3]; 318.15 K, x1 = 0.001737) was -0.00162 kcal/mol and -0.00165 kcal/mol.
With `CC(=O)C(C)C` [3-methyl-2-butanone] the mass density ([1]; 288.15 K) was 808.3 ± 0.7 kg/m3, the mass density ([1]; 298.15 K) was 798.51 ± 0.7 kg/m3 and the mass density ([1]; 308.15 K) was 788.6 ± 0.7 kg/m3. The mass density ([1]; 318.15 K) was 778.62 ± 0.7 kg/m3.
Molecule `CC(=O)CC(C)C` [4-methylpentan-2-one] has a mass density ([1]; 288.15 K) of 805.12 ± 0.61 kg/m3, a mass density ([1]; 298.15 K) of 795.98 ± 0.61 kg/m3 and a mass density ([1]; 308.15 K) of 786.75 ± 0.61 kg/m3. For the same molecule, the mass density ([1]; 318.15 K) was 777.46 ± 0.61 kg/m3.
Molecule `CCCC(C)=O` [pentan-2-one] has a mass density ([1]; 288.15 K) of 811.06 ± 0.61 kg/m3, a mass density ([1]; 298.15 K) of 801.41 ± 0.61 kg/m3 and a mass density ([1]; 308.15 K) of 791.66 ± 0.61 kg/m3. For the same molecule, the mass density ([1]; 318.15 K) was 781.83 ± 0.61 kg/m3.
`CCC(=O)CC` [pentan-3-one] gave a mass density ([1]; 288.15 K) of 818.9 ± 0.61 kg/m3, a mass density ([1]; 298.15 K) of 809.16 ± 0.61 kg/m3 and a mass density ([1]; 308.15 K) of 799.32 ± 0.61 kg/m3. The mass density ([1]; 318.15 K) was 789.41 ± 0.61 kg/m3.
